According to patent US11478526B2, “Methods of reducing neuroinflammation or toxicity induced by amyloid beta (abeta) using glucocorticoid induced leucine zipper (GILZ) analog peptides” (INDIANA UNIVERSITY RESEARCH AND TECHNOLOGY CORPORATION, priority 2016, dated 2022):

How the values were obtained:
[1] = LD50 predicted from in-vitro IC50 by regression (Speilmann method); settings: for LD50 (mM): score 1/0; for LD50 estimated from IC50: Log (LD50)=0.506×(log IC50)+0.475, body weight
Experimental: Lactate dehydrogenase (LDH) assay: To detect direct GA-induced cell lysis we performed LDH release assays (Roche Molecular Diagnostics). […] Approximately 5×10^4 U373 cells/well were cultured in 96-well plates in the presence of increasing concentrations of individual GA or control peptide from 0.5 μM to 500 μM. Cells treated with 2% triton-X 100 (Sigma Aldrich, St. Louis, Mo.) for 10 minutes served as positive control. Untreated cells served as controls for spontaneous LDH-release. Specific LDH-release was calculated according to the following formula: LDH-release %=100*(GA or control peptide treated cells—untreated cells)/(positive control-untreated cells). The IC50 values were extrapolated by logarithmic estimation. The LD50 in mg/kg was predicted using the formula, Log (LD50)=0.506×(log IC50)+0.475. […]

U373 cells [2] = format: cell-based, human; settings: Example 9, PGA synthesized with TAT; read-out: IC50 of LDH release extrapolated from regression analysis
Experimental: Lactate dehydrogenase (LDH) assay: To detect direct GA-induced cell lysis we performed LDH release assays (Roche Molecular Diagnostics). […] Approximately 5×10^4 U373 cells/well were cultured in 96-well plates in the presence of increasing concentrations of individual GA or control peptide from 0.5 μM to 500 μM. Cells treated with 2% triton-X 100 (Sigma Aldrich, St. Louis, Mo.) for 10 minutes served as positive control. Untreated cells served as controls for spontaneous LDH-release. Specific LDH-release was calculated according to the following formula: LDH-release %=100*(GA or control peptide treated cells—untreated cells)/(positive control-untreated cells). The IC50 values were extrapolated by logarithmic estimation. The LD50 in mg/kg was predicted using the formula, Log (LD50)=0.506×(log IC50)+0.475.
Effects of PGA on membrane integrity and apoptosis: The top five PGA were covalently synthesized with the cell penetrating TAT (transcriptional transactivation) peptide to facilitate intracellular delivery (Genescript, N.J.). Membrane integrity of U373 microglial cells exposed to increasing concentration of each PGA from 0.5 μm to 500 μM was assessed by the leakage of intracellular lactate dehydrogenase (LDH) into culture medium (Roche, Ind.).

U373 cells [3] = test: Annexin-V and propidium iodide apoptosis by flow cytometry; format: cell-based, human; settings: score 1/0
Experimental: Detection apoptosis by flow cytometry: To further assess cell cytotoxicity, the apoptotic effects of individual GA or control peptide was evaluated by the Annexin-V and propidium iodide (PI) dual staining method (Annexin-V-Fluos staining kit, Roche Diagnostics, Mannheim, Germany). As opposed to apoptotic cells, necrotic cells with ruptured cell membrane take up PI, the DNA binding dye. Thus, cells which take up both fluorochromes are a mixture of apoptotic and necrotic cells, whereas cells that exclude PI but bind Annexin V are (early) apoptotic cells. U373 cells cultured with varying concentrations of individual GA or control peptide (0.5 μM to 50 μM) for 24 hours were centrifuged and suspended in 100 μl of Annexin V/PI labelling solution (20 μl each of Annexin-V-Fluos labelling reagent and PI in 1 ml of binding buffer) for 15 min at room temperature. After washing the cells were resuspended in PBS:1% paraformaldehyde and analyzed using a FACScan flow cytometer (BD Biosciences, San Jose, Calif.).

[4] = tested on: primary human fetal brain cells (HFB); test: CTG viability of primary human fetal brain cultures with or without Aβ1-42; format: cell-based; settings: for viability of Aβ1-42 exposed HFB cells: Aβ1-42 10 μM
Experimental: Functional assays in human primary mixed brain cultures (HFB). Primary cultures of mixed HFB were prepared from the brain parenchyma of aborted fetuses (80-100 days gestational age). The tissues were obtained from the Birth Defects Research Laboratory (BDRL) at the University of Washington, Seattle with approval from the Indiana University Institutional Review Board (IRB). The IRB determined that the use of anonymous human biological materials received from this depository is not considered as human subjects research (supplementary document, s1). The NIH funded BDRL tissue distribution program operates separately in full compliance with all relevant state and federal laws and regulations with donors providing written informed consent.
Fetal brain materials (10-20 g) were shipped overnight in chilled Hibernate-E medium (Invitrogen) supplemented with B27 (Invitrogen), GlutaMAX (Invitrogen) and antibiotic-antimycotic solution (Cellgro). HFB were prepared and cultured as described. Briefly, cells were cultured in Neurobasal medium (Invitrogen) without phenol red supplemented with 1×B27, […] GlutaMAX, 1×antibiotic cocktail, 5 ng/mL recombinant fibroblast growth factor 2 (bFGF) (Invitrogen), and 2 μL/mL Normocin (InVivoGen, San Diego, Calif., USA). Cells were counted and seeded onto poly-D-lysine (Sigma-Aldrich) coated 24-well plates (Corning, Lowell, Mass., USA) at 1.5×10^5 cells per well and maintained at 37° C. in a 5% CO2 incubator. Half media changes were performed every 4th day of culture and morphology was monitored via phase contrast microscopy. Culture medium was removed from cells on day 17 (DIV17) and replaced with Neurobasal medium with B27. […] Cells and conditioned media were harvested and stored for further analysis. Relative ATP concentration was measured using the CTG kit (Promega). Data is presented as ΔRLU=RLU of Aβ1-42 exposed cells-RLU unexposed cells. Conditioned media collected were assessed for specific cytokines using the OptEIA kits (BD Biosciences). Nuclear and cytoplasmic fractions were extracted using the CelLytic™ NuCLEAR™ Extraction Kit (Sigma) following manufacturer's protocol. Five microgram of nuclear extracts was incubated in a 96-well plate coated with oligonucleotides containing the NF-κβ consensus nucleotide sequence (5′-[…]-3′) (SEQ ID NO: 30). The activated NF-κβ bound to DNA was detected by anti-p65 antibody followed by a peroxidase coupled secondary antibody and substrate using the TransAM kit protocol (Active Motif). Nuclear extracts of Raji cells was used as the positive control.
Select PGA protects against Aβ1-42 induced toxicity, prevents p65 activation and cytokine response in human fetal brain (HFB) cells. […] Viability in terms of relative luminescent Units (RLU) was quantified using a Glowmax luminometer (Promega, Wis.). Data are presented as ARLU=RLU of Aβ1-42 exposed cells-RLU of unexposed cells. […] The mean RLU of vehicle treated HFB varied between 7352.75+/−1265.2 and 16157.5+/−4950. Average RLU of cultures exposed to Aβ1-42 varied between 6067.25+/−903.05 and 11574.25+/−4139.3 in different experiments. […] The culture supernatants were assessed for cytokines by ELISA (R&D Systems, Minn.). […] Primary HFB cultured similarly and harvested at the end of 4 hours was assessed for nuclear p65 using TransAM kit for NF-κB p65 (Active Motif, Calif.).

[5] = target: T1, Recombinant human p65 protein (r-p65) (Homo sapiens, UniProt Q04206); test: Plate binding ELISA of GA/PGA with r-p65 (KD by method of Friguet)
T1 construct: purchased Ori-Gene Technologies Inc., Rockville, Md; TP320780
T1 sequence (Q04206 whole entry): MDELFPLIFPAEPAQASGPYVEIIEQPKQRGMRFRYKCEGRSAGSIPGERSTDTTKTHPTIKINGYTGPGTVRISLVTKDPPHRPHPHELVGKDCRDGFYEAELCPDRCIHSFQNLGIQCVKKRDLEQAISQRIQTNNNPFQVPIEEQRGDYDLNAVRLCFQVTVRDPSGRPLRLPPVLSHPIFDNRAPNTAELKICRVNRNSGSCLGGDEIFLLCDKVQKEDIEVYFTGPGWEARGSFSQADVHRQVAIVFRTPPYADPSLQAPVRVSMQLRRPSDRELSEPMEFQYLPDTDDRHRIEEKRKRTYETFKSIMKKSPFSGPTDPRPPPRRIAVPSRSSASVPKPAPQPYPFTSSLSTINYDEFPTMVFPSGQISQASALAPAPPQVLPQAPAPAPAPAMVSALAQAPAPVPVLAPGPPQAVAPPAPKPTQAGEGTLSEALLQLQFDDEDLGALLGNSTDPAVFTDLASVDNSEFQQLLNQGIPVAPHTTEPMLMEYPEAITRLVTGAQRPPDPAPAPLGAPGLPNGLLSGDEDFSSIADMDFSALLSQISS
Experimental: We used similar method to determine direct binding kinetics of GA hexapeptides with human r-p65. […] Absorbance at 650 nm was measured with a mixing time of 30 s using BIORAD microplate reader. […] The dissociation constant of the interaction between the GA or the control peptide and r-p65 was determined by the method of Friguet et al., as described. A fraction of the bound r-p65 (x) and the ratio of bound r-p65 to the free GA or control peptide (y) was determined by the equations: x=(A0−A)/(A0), where A0 is the absorbance of r-p65anti-p65 complex in the absence of bound GA or control peptide and y=(A0−A)/(a0−i0)×(A0−A)/(A0), where a0 is the total concentration of GA or control peptide and i0 is the total concentration of r-p65.
Kinetics of PGA:-p65 interaction: The binding kinetics of top five PGA with full length human r-p65 was assessed as described. Plate bound GILZ-P or PGA at increasing concentrations was probed with r-p65-DDK (Ori-Gene Technologies Inc., Rockville, Md.) at constant concentration and detected with anti-DDK.

[6] = tested on: LPS induced neuroinflammation; test: LPS induced neuroinflammation: real time PCR of brain tissue; format: in vivo, mouse; settings: 25 mg/kg i.v. alternate days, day 7
Experimental: Animals and lipopolysaccharide induced neuroinflammation: Male C57/6J mice weighing 32 to 37 grams were housed five per cage at a temperature of 22±2° C. with 12 hour light/12 hour dark cycles with free access to laboratory food and water. Lipopolysaccharides (LPS) from Escherichia coli 026:B6, =10,000 EU/mg, purified by phenol extraction was purchased from Sigma (Sigma Aldrich, Mo., USA). The mice were randomly divided into seven groups: LPS, LPS+GA-1 or GA-2 or CP-1 or CP-2 or CP-3 or TAT. The LPS was administered intraperitoneally at […] in 100 μl of sterile saline followed by corn oil in the morning daily for six days. The GA or CP was administered intravenously at 25 mg/kg in 100 μl of sterile saline on alternate days. Additional control group included mice receiving saline alone. All animals were sacrificed on day 7.
Real time polymerase chain reaction. Total cellular RNA was isolated from each brain tissue using Qiagen kit (Invitrogen, Carlsbad, Calif.) following manufacturer's protocol and reverse transcribed using iScript cDNA synthesis kit (Biorad, Calif.). Equal amount of cDNA measured by the Nanodrop (ThermoFisher Scientific, Waltham, USA) was used for amplification of IL-1β, IL-12, CD14, BclXL and Bcl2. Real time PCR was performed using SYBR green/ROX qPCR master mix (SA Biosciences, Frederick, Md.) on the ABI Prism 7000 sequence detection system (Applied Biosystem, Foster City, Calif., USA). Each reaction contains 2×12.5 μl of master mix, 1 μl of 10 μM of primers and 50 ng of the cDNA, to a total volume of 25 μl. The thermal cycling conditions included an initial denaturation step at 50° C. for 2 min, 95° C. for 3 min, 39 cycles at 95° C. for 30 s, annealing temperature at 62° C. for 30 s and extension at 72° C. for 30 s.
The gene specific threshold cycle (Ct) for each sample (ΔCt) was corrected by subtracting the Ct for the housekeeping gene β-actin. Untreated controls were chosen as the reference samples. The ΔCt for all experimental samples was subtracted by the ΔCt for the control samples (ΔΔCt).The difference in each gene specific threshold between the sample from vehicle treated and GA or CP treated cells was determined to obtain the relative change in the specific mRNA. The magnitude of change in the mRNA was expressed as 2^−ΔΔCt. Each measurement of a sample was performed in duplicates.

[7] = tested on: differentiated SK-N-SH neuroblastoma cells; test: Cellular morphology and CTG viability in differentiated neuroblasts; settings: 50 μM or 500 μM, 24 hours; for cell morphology: phase contrast
Experimental: Cell Titer-Glo (CTG) luminescent cell viability assay: Human neuroblastoma (SK-N-SH) cells cultured in minimal essential medium (MEM) supplemented with 1% fetal bovine serum (FBS) and 1% penicillin (100 U/ml)/streptomycin (100 μg/ml) were differentiated with 10 μM all-trans retinoic acid for 7 days. After resting for 24 hours in the low serum medium, the cells were seeded in 24 well (10^5 cells/well) culture plates in fresh medium and incubated with 50 μM or 500 μM of individual GA or control peptide for additional 24 hours. The cultures were then photographed using a phase contrast Leica microscope (Leica Microsystems Inc, Buffalogrove, Ill.). Subsequently, the cells were harvested, lysed with lysis buffer (M-PER, Pierce) and the lysate was assessed for metabolic activity using the luciferase based CTG assay (CTG, Promega, Madison, Wis.). Briefly, cell lysate (5 μL) in 25 μL of phosphate buffered saline was transferred to an opaque white 96-well plate, and then 30 μL of CTG assay solution was added. The relative luminescent signal (RLT) was quantified using a Glowmax luminometer (Promega).

Aβ1-42 exposed HFB cells = test: Cytokines in culture medium of Aβ1-42 exposed HFB; format: cell-based, human; settings: PGA at IC50 concentration
[8] = dissociation constant, KD, method of Friguet et al.

| Substance | LD50 (mM) [1] | IC50 (U373 cells [2]) [µM] | % apoptosis at LD50 (U373 cells [3]) | tolerance of HFB cultures (ΔRLU, CTG) ([4]; PGA at IC50 concentration) | viability of Aβ1-42 exposed HFB cells ([4]; PGA at IC50 concentration, 24 hours) | Kd ([5]; KD (uM), score 1/0) [µM] | Kd [5, 8] [µM] | LD50 estimated from IC50 [1] [mg/kg] | relative expression of BCl2 in brain tissues [6] | relative expression of BclXL in brain tissues [6] | relative expression of CD14 mRNA in brain tissues [6] | cellular metabolic activity / viability (CTG assay) [7] | cell morphology [7] | viability of Aβ1-42 exposed HFB cells ([4]; 50 μM peptide, vs untreated Aβ1-42 exposed cultures) | AIL-1p concentration in culture supernatant (not shown) (Aβ1-42 exposed HFB cells) | AIL-6 concentration in culture supernatant (Aβ1-42 exposed HFB cells) | tolerance of HFB cultures (Δ-RLU, CTG) ([4]; 50 μM peptide) |
| --- | --- | --- | --- | --- | --- | --- | --- | --- | --- | --- | --- | --- | --- | --- | --- | --- | --- |
| Ac-EPAPYQPEG-NH2 [PGA-3] | 1 (>100) | 0.98 | 1 (<25) | well tolerated | significantly higher | > 3 | 3.27 |  |  |  |  |  |  |  |  |  |  |
| Ac-EPAPYQPEG-NH2 [CP-1] |  |  |  |  |  |  |  | 272.78 | 0.36+/−0.8 | 0.06+/−0.08 | 1+/−0.3 | did not adversely affect the differentiated neuroblastoma cells | no apparent adverse effects on morphology | not significant |  |  |  |
| Ac-EPAPEQPDG-NH2 [PGA-5] | 1 (>100) | 2 | 0 (>25) | significant toxicity |  | > 3 | 3.4 |  |  |  |  |  |  |  | significantly lower | significantly lower |  |
| Ac-APKPYQPRG-NH2 [CP-3] |  |  |  |  |  |  |  | 237.62 | 0.44+/−0.9 | 0.13+/−0.1 | 1.2+/−0.1 | reduced the viability of the cells at both concentrations tested | morphological changes consistent with cell death |  |  |  | significant toxicity |
| Ac-EPAPEQPDG-NH2 [CP-2] |  |  |  |  |  |  |  | 237.52 | 0.45+/−0.9 |  | 2.4+/−2 | did not adversely affect the differentiated neuroblastoma cells | no apparent adverse effects on morphology |  |  |  | significant toxicity |
| Ac-APKPYQPRG-NH2 [PGA-1] | 0 (<100) | 2.27 | 0 (>25) | significant toxicity |  | > 3 | 4.28 |  |  |  |  |  |  |  |  |  |  |
